Reference: patent publication US12297194B2, “N2-phenylpyrimidine-2,4-diamine compounds, and preparation methods and methods of use thereof” (BRIDGE BIOTHERAPEUTICS, INC., priority 2021, dated 2025)

Key:
Assay type in all cases: cell-based, murine
[1] = target: Ba/F3 EGFR Del19/T790M/C797S mutants (Homo sapiens, UniProt P00533, T790M/C797S, cells depend on it, form not given); experiment: CellTiter-Glo cell viability, Ba/F3 EGFR Del19/T790M/C797S cells; settings: 72 hours, read-out: Ba/F3 EGFR mutant cell (IC50, nM) D/T/C
Sequence of Ba/F3 EGFR Del19/T790M/C797S mutants (P00533 with tags, fused parts or gaps DEL746-750/T790M/C797S, form open): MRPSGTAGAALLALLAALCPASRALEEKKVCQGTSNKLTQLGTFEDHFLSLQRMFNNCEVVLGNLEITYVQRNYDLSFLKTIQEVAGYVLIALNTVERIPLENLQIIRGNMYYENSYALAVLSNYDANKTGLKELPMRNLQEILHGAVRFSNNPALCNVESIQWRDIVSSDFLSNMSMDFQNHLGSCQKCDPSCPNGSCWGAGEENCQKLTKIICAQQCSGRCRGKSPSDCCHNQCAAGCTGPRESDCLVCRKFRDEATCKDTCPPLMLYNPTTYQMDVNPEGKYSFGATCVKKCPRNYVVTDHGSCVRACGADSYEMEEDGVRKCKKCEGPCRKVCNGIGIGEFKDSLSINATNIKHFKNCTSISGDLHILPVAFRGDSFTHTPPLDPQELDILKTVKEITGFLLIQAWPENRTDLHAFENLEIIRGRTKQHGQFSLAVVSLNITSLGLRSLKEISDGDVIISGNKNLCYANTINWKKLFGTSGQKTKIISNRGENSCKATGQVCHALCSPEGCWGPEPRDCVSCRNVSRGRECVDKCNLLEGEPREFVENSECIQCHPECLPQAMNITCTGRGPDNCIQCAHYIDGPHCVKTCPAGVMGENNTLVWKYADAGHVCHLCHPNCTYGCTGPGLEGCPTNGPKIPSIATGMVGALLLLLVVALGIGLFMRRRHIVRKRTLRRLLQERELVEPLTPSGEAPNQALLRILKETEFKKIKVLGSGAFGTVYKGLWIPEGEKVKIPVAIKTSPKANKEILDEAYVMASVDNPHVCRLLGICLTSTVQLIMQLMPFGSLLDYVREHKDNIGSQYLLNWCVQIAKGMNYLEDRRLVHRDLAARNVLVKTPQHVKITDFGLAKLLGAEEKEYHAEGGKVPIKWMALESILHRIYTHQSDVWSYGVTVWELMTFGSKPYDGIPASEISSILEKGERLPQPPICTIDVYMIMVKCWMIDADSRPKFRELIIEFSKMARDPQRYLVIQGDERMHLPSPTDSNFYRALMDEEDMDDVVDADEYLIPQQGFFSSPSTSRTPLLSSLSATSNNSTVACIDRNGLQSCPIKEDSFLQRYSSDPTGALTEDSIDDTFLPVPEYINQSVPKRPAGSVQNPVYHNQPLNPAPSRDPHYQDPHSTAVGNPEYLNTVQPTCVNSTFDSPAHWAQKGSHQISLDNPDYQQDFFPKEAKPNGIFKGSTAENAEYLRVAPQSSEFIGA
How it was run: (§1)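 EGFR-driven Ba/F3 cells, 2500 per well, exposed 72 h at 37° C to compound (top 2000 nM, ~3-fold steps). Readout: cellular ATP, luminescence; IC50 calculated.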

[2] = target: Ba/F3 EGFR Del19/C797S mutants (Homo sapiens, UniProt P00533, C797S, cells depend on it, form not given); experiment: CellTiter-Glo cell viability, Ba/F3 EGFR Del19/C797S cells; settings: 72 hours, read-out: Ba/F3 EGFR mutant cell (IC50, nM) D/C
Sequence of Ba/F3 EGFR Del19/C797S mutants (P00533 with tags, fused parts or gaps DEL746-750/C797S, form open): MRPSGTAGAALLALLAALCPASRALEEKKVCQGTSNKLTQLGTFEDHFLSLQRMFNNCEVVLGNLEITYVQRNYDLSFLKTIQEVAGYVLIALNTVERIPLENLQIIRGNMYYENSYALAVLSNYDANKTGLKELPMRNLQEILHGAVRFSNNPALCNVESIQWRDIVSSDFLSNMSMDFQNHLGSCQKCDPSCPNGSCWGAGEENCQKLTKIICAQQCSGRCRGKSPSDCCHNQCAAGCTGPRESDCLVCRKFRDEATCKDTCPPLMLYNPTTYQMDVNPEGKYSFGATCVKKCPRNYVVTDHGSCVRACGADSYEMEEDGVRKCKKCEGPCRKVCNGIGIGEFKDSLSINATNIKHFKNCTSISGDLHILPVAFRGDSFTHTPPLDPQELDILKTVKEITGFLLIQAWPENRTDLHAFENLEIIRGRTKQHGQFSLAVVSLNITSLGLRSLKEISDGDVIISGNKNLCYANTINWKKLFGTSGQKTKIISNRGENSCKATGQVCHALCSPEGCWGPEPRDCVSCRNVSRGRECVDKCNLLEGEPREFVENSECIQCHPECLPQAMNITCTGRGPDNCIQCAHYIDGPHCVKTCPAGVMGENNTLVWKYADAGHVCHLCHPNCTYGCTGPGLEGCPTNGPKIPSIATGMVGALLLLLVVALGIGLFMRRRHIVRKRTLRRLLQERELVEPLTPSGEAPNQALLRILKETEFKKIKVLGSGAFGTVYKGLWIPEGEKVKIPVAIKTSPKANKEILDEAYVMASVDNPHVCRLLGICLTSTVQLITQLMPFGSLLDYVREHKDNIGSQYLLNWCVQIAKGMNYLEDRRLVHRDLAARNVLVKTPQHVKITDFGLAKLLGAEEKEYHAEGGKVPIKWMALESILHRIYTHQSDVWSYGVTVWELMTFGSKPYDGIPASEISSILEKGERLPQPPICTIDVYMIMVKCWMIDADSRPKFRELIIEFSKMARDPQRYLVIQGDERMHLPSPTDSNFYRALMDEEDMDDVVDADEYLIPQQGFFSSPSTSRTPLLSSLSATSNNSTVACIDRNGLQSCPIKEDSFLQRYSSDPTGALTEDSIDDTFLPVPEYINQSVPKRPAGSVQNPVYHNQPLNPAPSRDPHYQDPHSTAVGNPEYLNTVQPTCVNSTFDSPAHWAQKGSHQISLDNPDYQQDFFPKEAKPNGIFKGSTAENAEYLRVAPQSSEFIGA
How it was run: as §1

[3] = target: Ba/F3 EGFR L858R/C797S mutants (Homo sapiens, UniProt P00533, C797S/L858R, cells depend on it); experiment: CellTiter-Glo cell viability, Ba/F3 EGFR L858R/C797S cells; settings: 72 hours, read-out: Ba/F3 EGFR mutant cell (IC50, nM) L/C
How it was run: as §1

[4] = target: Ba/F3 EGFR Del19/T790M mutants (Homo sapiens, UniProt P00533, T790M, cells depend on it, form not given); experiment: CellTiter-Glo cell viability, Ba/F3 EGFR Del19/T790M cells; settings: 72 hours, read-out: Ba/F3 EGFR mutant cell (IC50, nM) D/T
How it was run: as §1

Ba/F3 EGFR Wild-type = Ba/F3 EGFR Wild-type (Homo sapiens, UniProt P00533); experiment: CellTiter-Glo cell viability, Ba/F3 EGFR wild-type cells; settings: 72 hours, read-out: Ba/F3 EGFR mutant cell (IC50, nM) WT
Sequence of Ba/F3 EGFR Wild-type (P00533 whole entry, change not shown): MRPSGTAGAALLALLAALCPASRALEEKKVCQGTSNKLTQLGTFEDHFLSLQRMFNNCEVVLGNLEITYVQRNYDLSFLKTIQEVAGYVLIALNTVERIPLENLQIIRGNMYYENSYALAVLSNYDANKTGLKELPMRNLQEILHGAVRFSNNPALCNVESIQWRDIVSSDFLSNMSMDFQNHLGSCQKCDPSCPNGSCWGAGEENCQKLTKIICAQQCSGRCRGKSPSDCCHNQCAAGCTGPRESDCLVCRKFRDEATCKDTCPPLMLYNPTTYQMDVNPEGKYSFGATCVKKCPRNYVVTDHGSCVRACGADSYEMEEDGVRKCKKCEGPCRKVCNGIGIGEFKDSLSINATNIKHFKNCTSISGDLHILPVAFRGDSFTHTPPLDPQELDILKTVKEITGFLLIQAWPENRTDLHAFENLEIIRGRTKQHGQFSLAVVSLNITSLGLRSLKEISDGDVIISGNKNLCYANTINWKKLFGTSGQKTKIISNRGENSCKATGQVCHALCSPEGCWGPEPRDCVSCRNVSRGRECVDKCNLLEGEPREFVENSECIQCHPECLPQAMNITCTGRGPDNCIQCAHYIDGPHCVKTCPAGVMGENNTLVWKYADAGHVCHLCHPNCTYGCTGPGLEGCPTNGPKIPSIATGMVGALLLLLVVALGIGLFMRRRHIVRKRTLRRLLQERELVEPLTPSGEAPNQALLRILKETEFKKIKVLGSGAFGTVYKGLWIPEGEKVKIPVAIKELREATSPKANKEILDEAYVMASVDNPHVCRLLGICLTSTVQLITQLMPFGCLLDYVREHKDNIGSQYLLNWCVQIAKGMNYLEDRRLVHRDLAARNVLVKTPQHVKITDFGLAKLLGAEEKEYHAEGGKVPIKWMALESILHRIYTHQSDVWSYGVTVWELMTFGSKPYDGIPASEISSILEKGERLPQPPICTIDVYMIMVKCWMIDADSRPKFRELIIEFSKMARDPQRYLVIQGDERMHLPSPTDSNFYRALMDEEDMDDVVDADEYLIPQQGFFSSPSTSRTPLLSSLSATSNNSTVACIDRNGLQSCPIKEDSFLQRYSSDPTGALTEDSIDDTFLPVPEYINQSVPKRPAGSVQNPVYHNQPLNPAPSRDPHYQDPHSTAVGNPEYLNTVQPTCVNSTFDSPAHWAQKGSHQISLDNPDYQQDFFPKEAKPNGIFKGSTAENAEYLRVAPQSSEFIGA
How it was run: as §1

[5] = target: Ba/F3 EGFR L858R/T790M/C797S mutants (Homo sapiens, UniProt P00533, T790M/C797S/L858R, cells depend on it); experiment: CellTiter-Glo cell viability, Ba/F3 EGFR L858R/T790M/C797S cells; settings: 72 hours, read-out: Ba/F3 EGFR mutant cell (IC50, nM) L/T/C
Sequence of Ba/F3 EGFR L858R/T790M/C797S mutants (P00533 whole entry T790M/C797S/L858R): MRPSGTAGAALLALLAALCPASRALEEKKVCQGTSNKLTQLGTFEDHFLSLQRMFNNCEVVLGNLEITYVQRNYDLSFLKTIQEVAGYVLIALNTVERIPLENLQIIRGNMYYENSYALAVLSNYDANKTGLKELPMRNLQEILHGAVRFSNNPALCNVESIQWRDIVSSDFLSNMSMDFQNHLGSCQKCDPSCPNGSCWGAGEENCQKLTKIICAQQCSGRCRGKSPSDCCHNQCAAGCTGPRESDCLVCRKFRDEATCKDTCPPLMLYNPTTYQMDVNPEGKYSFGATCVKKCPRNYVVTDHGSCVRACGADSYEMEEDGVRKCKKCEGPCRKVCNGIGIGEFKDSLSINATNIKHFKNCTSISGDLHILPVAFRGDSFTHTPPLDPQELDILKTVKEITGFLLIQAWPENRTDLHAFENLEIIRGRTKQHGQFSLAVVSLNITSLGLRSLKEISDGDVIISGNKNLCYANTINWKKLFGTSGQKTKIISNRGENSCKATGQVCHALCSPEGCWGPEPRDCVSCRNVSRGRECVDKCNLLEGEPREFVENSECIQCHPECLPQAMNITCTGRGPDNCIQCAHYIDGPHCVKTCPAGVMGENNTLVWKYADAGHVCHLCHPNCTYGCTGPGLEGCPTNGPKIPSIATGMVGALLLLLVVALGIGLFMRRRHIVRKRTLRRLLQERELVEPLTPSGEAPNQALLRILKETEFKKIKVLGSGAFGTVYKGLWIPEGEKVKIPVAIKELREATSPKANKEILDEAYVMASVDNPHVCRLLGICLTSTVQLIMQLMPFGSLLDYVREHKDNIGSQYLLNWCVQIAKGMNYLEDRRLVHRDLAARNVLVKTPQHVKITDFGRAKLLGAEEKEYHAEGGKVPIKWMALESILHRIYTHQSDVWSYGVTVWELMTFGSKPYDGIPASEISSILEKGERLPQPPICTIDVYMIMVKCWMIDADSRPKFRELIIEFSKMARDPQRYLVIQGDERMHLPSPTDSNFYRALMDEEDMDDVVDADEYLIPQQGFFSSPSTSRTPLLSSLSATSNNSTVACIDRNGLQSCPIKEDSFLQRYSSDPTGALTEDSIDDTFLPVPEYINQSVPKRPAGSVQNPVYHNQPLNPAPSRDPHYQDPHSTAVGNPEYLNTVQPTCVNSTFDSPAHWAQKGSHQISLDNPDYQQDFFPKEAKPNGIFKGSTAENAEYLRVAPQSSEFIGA
How it was run: as §1

| SMILES | GI50 [1] | GI50 [2] | GI50 [3] | GI50 [4] | GI50 (Ba/F3 EGFR Wild-type) | GI50 [5] |
| --- | --- | --- | --- | --- | --- | --- |
| CCc1cc(Nc2ncc(Cl)c(Nc3ccc4nccnc4c3NS(C)(=O)=O)n2)c(OC)cc1N1CC2(C1)CN(C(C)C)C2 [Example B26, N-(6-((5-chloro-2-((5-ethyl-4-(6-isopropyl-2,6-diazaspiro[3.3]heptan-2-yl)-2-methoxyphenyl)amino)pyrimidin-4-yl)amino)quinoxalin-5-yl)methanesulfonamide] | 9 nM | 42 nM | 59 nM | 38 nM | 528 nM | 61 nM |
| CCCc1cc(Nc2ncc(Cl)c(Nc3cccc(OC)c3NS(C)(=O)=O)n2)c(OC)cc1N1CCC(N(C)C)CC1 [Example C19, N-(2-((5-chloro-2-((4-(4-(dimethylamino)piperidin-1-yl)-2-methoxy-5-propylphenyl)amino)pyrimidin-4-yl)amino)-6-methoxyphenyl)methanesulfonamide] | 7 nM | 12 nM | 30 nM | 9 nM | 668 nM | 54 nM |
| CCCc1cc(Nc2ncc(Cl)c(Nc3ccc4nccnc4c3N(C)S(C)(=O)=O)n2)c(OC)cc1N1CCC(N2CCCC2)CC1 [Example A42, N-(6-((5-chloro-2-((2-methoxy-5-propyl-4-(4-(pyrrolidin-1-yl)piperidin-1-yl)phenyl)amino)pyrimidin-4-yl)amino)quinoxalin-5-yl)-N-methylmethanesulfonamide] | 7 nM | 2 nM | 80 nM | 33 nM | 1860 nM | 117 nM |
